{"source": "patent US20160280788A1", "about": "“USE OF ANTIBODIES AGAINST ICAM-1 IN THE TREATMENT OF PATIENTS WITH RELAPSED CANCER” (BioInvent International AB, priority 2010, published 2016)", "key": {"ARH-77 cells [1]": {"system": "ARH-77 cells", "assay": "Subcutaneous scid/ARH-77 xenograft, prophylactic model", "conditions": "20 mg/kg twice weekly i.p., commencing one day after tumor cell inoculation", "protocol": "Tumor cells were injected subcutaneously into the left flank of SCID mice. Mice received twice-weekly intraperitoneal injections with BI-505, control antibody or rituximab at doses of 20, 2 and/or 0.2 mg/kg commencing one day after tumor cell inoculation. There were 8 to 10 animals per treatment group. […] Statistical significance was calculated relative to control antibody treatment using Kruskal-Wallis Test (Nonparametric ANOVA) with Dunn's Multiple Comparisons Test (tumor volume) or the log-rank test (mouse survival) using Graphpad Instat or Prism software, respectively. Statistical significance was considered for *p<0.05, **p<0.01, and ***p<0.001.\nTumor cells were injected subcutaneously into the left flank of SCID mice. Mice received twice-weekly intraperitoneal injections with BI-505 at doses of 0.02-20 mg/kg commencing day after tumor cell inoculation. There were 8-10 animals per treatment group. […] Statistical significance was calculated relative to control antibody treatment using Kruskal-Wallis Test (Nonparametric ANOVA) with Dunn's Multiple Comparisons Test (tumor volume) or the log-rank test (mouse survival) using Graphpad Instat or Prism software, respectively. Statistical significance was considered for *p<0.05, **p<0.01, and ***p<0.001. Graphs illustrate representative experiments out of several performed.\n(FIG. 7A) ARH-77 cells were injected subcutaneously into the left flank of SCID mice (n=8 per group). Mice were treated with the different BI-505 isotypes twice weekly. […] Statistical significance was calculated relative to control antibody treatment using Kruskal-Wallis Test (Nonparametric ANOVA) with Dunn's Multiple Comparisons Test. Statistical significance was considered for *p<0.05, **p<0.01, and ***p<0.001.\nMice were anaesthetized with a mixture of sevofluran and oxygen prior to myeloma cell inoculation and 1-5×10^6 myeloma cells were then subcutaneously injected in a volume of 100 μl into the left flank."}, "ARH-77 tumors": {"system": "ARH-77 tumors", "assay": "Subcutaneous scid/ARH-77 xenograft, established (palpable tumor) model", "conditions": "IgG B11 even at 0.2 mg/kg (100-fold lower dose than rituximab)", "protocol": "Mice were anaesthetized with a mixture of sevofluran and oxygen prior to myeloma cell inoculation and 1-5×10^6 myeloma cells were then subcutaneously injected in a volume of 100 μl into the left flank. Treatment with antibodies by intraperitonial (i.p.) injections was started either the day after cell inoculation (prophylactic model) or when tumors reached a size of approximately 100 mm^3 (established model). Antibodies were administrated in PBS in a total volume of 200 μL. Treatment with PBS or isotype control was used as control. Tumors were measured with a digital calliper and the tumor volumes were calculated according to formula: width^2×length×0.52. Animals were sacrificed when the tumor sizes reached the ethical limit of 1.5 cm. Surviving mice were sacrificed after a maximum of 5 months. Blood samples collected from the vena cava were centrifuged at 2500 g for 15 min to obtain serum and the samples were stored at −20° C. Tumors were removed for immunohistochemistry, snap frozen and were kept at −85° C."}, "[2]": {"system": "ICAM-1 expressing tumor cell lines", "assay": "Complement-dependent cytotoxicity in tumor cell lines", "type": "cell-based", "conditions": "panel of ICAM-1 expressing tumor cell lines; human serum", "procedure": "Target cells were harvested and incubated in RPMI medium with antibodies at 5 μg/mL or at titrated concentrations between 0.01-100 μg/mL for 60 min on ice. Cells were thereafter washed and resuspended in cold medium before dispension into flow cytometry tubes. Treatments were performed in triplicates. Human serum, normal or heat-inactivated, (Sigma, Sweden) was added to tubes and the samples were incubated for 2 h at 37° C. After completed incubation ToPo-Pro-3 was added at a final concentration of 0.3 μM and cells were analyzed for membrane permeabilization using flow cytometry."}, "[3]": {"system": "HUVEC and HMVEC endothelial cells", "assay": "PCD in normal endothelial cells", "type": "cell-based", "conditions": "resting or activated (IFN-γ) cells", "procedure": "Target cells were seeded in 96-well culture plates at a density of 2×10^6 cells/mL culture medium. Titrated concentrations of IgG1 B11 or different negative and positive control antibodies were added to the cells, in the absence or presence of anti-human Fab fragment (Jackson ImmunoResearch) for cross-linking. The cells were then incubated for 16 hours at 37° C. in a humidified atmosphere of 5% CO2. The cells were harvested and stained for Annexin V-488/Propidium Iodide (Invitrogen, Sweden) and analysed using flow cytometer (FACS Calibur, BD Bioscience)."}, "[4]": {"system": "ICAM-1 on RPMI-8226 tumor cells", "assay": "ICAM-1 expression on MM cells isolated from treated mice (flow cytometry)", "type": "in vivo, SCID mice", "conditions": "disseminated RPMI-8226 model, cells collected at termination", "procedure": "Organs for FACS analysis were collected at scarification of mice, and cells from tissues were prepared by mechanistic dissociation and dispase/collagenase enzymatic digestion (Gibco, France). Cells were stained with anti-human CD38 antibody (PerCP-Cy5, Becton Dickinson), an anti-mouse CD45 (PE, Becton Dickinson) and human ICAM-1 (BI-505 IgG1 AF647, BioInvent) and incubated in the dark for 15 min at room temperature. After the incubation, cells were washed twice and the surface fluorescence of cells was analyzed with a flow cytometer apparatus (LSRII) at the Flow Cytometry Facility of the University of Burgundy.\nThe health status and behavior of mice was recorded every day and body weight of mice was recorded twice a week. […] Upon termination, bone marrow, spinal cord, adrenal glands and kidneys were collected and examined for ICAM-1 expression on tumor cells. To distinguish cells of human versus murine origin, an anti-mouse CD45 mAb was used CD45. […] In addition, cells were stained with AF647 conjugated anti ICAM-1 mAb and thereafter analyzed in a FACS LSRII. Bone marrow was mechanically dissociated to a single cell suspension whereas adrenal glands, kidneys and spinal cord cells were prepared using a combination of mechanistic dissociation and dispase/collagenase digestion (Gibco, France). Prior to the experiment, dispase and collagenase treatments were shown not to effect ICAM-1 levels on MM cell lines."}, "ARH-77 cells [5]": {"system": "ARH-77 cells", "assay": "Disseminated scid/ARH-77 model of multiple myeloma", "type": "in vivo, scid mice", "conditions": "i.v. on Days 7, 10, 13, 16; antibody 2 mg/kg, bortezomib 0.5 mg/kg; vs control", "procedure": "ARH-77 cells or RPMI-8226 were injected intraveniously into the SCID mice. (FIG. 6A) ARH-77 model. Animals received intravenous injections with antibody at 2 mg/kg or bortezomib (Velcade) at 0.5 mg/kg on Days 7, 10, 13, and 16 (as indicated by arrows in the graph). (FIG. 6B) RPMI-8226-model. BI-505 or control mAb was administered i.v at 2 mg/kg, twice weekly for 8 weeks, bortezomid, at 1 mg/kg, once weekly for 8 weeks, lenalidomide p.o with 2 mg/kg for 2 cycles consisting of 5 days of treatment and 2 days of wash out, melphalan i.v at 3 mg/kg, once weekly for 8 weeks, and dexamethasone (DXH) at 6 mg/kg/inj 3 times/week for 2 consecutive weeks. There were 6-10 mice per treatment group. Statistical significance was calculated using Log-rank Graphpad Prism software and determined at ***p<0.001. (FIG. 6C) To study the ICAM-1 level on human cells, the cells from different organs were stained and gated for CD38+/mCD45−/BI-505+. Left panel indicates the percentage of BI-505 positive cells in CD38+/mCD45 population and right panel the mean fluorescent intensity of the positive cells.\nThe anti-myeloma effect of BI-505 was examined in a disseminated model of multiple myeloma. The early and advanced disseminated model of multiple myeloma was performed at Oncodesign, Dijon, France. Briefly: 1×10^6 (early) or 5×10^6 (advanced) ARH-77 tumor cells in 200 μL of RPMI 1640 were injected intravenously (i.v) into the caudal vein of female scid mice (D0). Tumor cell injections were performed twenty four to forty eight hours after a whole body irradiation of mice (1.8 Gy, ^60Co, INRA, BRETENNIERES). The treatment was started at D5 (RPMI-8226 model) or D7 ([…] model) except alkeran which was administered at D10. B11 or control mAb was administered i.v. at 2 mg/kg, twice weekly for 8 weeks, bortezomib, at 1 mg/kg, once weekly for 8 weeks, lenalidomide p.o with 2 mg/kg for 2 cycles consisting of 5 days of treatment and 2 days of wash out, melphalan i.v. at 3 mg/kg, once weekly for 8 weeks and dexamethasone at 6 mg/kg, injected 2 consecutive weeks.\nThe disseminated model of scid/ARH-77 is a well-established experimental model that resembles human multiple myeloma disease progression and disease manifestation in many respects (33). We utilized this model to further characterize IgG B11 anti-myeloma activity (FIG. 6A). Intravenous injection of irradiated scid mice with 1×10^6 ARH-77 cells was previously shown to result in their dissemination and establishment in mouse bone-marrow, and resulting osteolytic bone-lesions and hypercalcemia, and ultimately, in animal paralysis or difficulty of breathing at which time animals were immediately sacrificed. […]"}, "mouse FcγRIV": {"molecular_target": "T1, mouse FcγRIV (Mus musculus, UniProt A0A0B4J1G0)", "T1 construct": "made in house; host or cells: HEK293E (transient)", "T1 sequence (A0A0B4J1G0 21-249)": "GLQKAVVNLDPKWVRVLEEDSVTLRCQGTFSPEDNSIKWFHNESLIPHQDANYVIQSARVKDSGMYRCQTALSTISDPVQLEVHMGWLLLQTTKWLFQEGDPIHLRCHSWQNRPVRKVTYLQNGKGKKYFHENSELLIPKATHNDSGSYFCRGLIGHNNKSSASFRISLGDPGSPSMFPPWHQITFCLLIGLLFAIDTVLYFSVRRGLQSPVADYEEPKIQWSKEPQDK", "assay": "Biacore binding of BI-505 isotype variants to mouse FcγRIV", "procedure": "(§1) His-tagged human FcγRIIIa or mouse FcγRIV were expressed transient in adherent HEK293E cells, purified using Ni-NTA chromatography and characterized using SDS-PAGE and/or Biacore. Surface plasmon resonance (SPR) measurements were perfomed using a Biacore 3000 instrument. Goat α-human-F(ab)′2 F(ab)′2 fragment (Jackson laboratories) was immobilised with a CM-5 chip using a standard amine coupling protocol. IgG1 B11, Iga4 B11, or 297Q B11 were diluted to 15 and 60 μg/mL respectively and added to the surface at […] for 3 min. His tagged human FcγRIIIa or mouse FcγRIV were pre-incubated with an α-HIS antibody (R&D Systems) at a 2:1 molar ratio before addition to the chip surface, […], 1 min. After each cycle the surface was regenerated twice with glycine buffer pH 1.7."}, "[6]": {"system": "B lymphoma cell line (CL-01)", "assay": "ADCC of tumor cells with human NK effector cells", "type": "cell-based", "conditions": "human Natural Killer effector cells", "from_the_text": "Buffy coats from human donors (ordered through Blodcentralen, Lund) were used to isolate peripheral blood mononuclear cells (PBMCs), and subsequently NK cells. Briefly, peripheral blood components were separated using Ficoll Paque PLUS (Amersham Biosciences, Sweden) in LeucoSep tubes (Greiner Bio-One). The PBMC fraction was removed and thoroughly washed in ice-cold DPBS (Invitrogen), before magnetic labeling and separation of the NK cell population using positive or negative NK cell isolation kits and MACS LS columns (Miltenyi Biotec). The purity of the obtained NK cell fractions was analyzed using flow cytometry, after staining with α-CD56 antibodies (BD Biosciences). Target cells were harvested, and incubated in medium with or without the respective antibodies (2 μg/mL) for 60 min on ice. Cells were thereafter washed and resuspended in cold medium before dispension into FACS tubes. Subsequently, isolated NK cells were diluted in ADCC medium and dispensed together with the respective antibody-coated target cells at varying effector/target cell ratios (40:1, 20:1, 5:1 and 1:1). All experiments were performed in triplicates. After completed incubation ToPo-Pro-3 dye and counting beads (Invitrogen) were added and cells were analyzed for membrane permeabilization using flow cytometry."}, "human FcγRIIIa": {"molecular_target": "T2, human FcγRIIIa (Homo sapiens, UniProt P08637)", "T2 construct": "made in house; host or cells: HEK293E (transient)", "T2 sequence (P08637 17-254)": "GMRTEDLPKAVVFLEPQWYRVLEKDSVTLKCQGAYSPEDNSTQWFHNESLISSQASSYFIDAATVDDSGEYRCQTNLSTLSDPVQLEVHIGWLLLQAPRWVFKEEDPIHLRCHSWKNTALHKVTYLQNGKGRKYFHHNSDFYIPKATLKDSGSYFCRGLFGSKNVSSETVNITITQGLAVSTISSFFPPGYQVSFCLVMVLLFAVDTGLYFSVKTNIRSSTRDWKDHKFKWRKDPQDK", "assay": "Biacore binding of BI-505 isotype variants to human FcγRIIIa", "procedure": "as §1"}, "[7]": {"assay": "Mouse serum antibody levels by ELISA at end of xenograft experiment", "type": "in vivo", "conditions": "dose 2 mg/kg; mouse serum at end of experimentation", "procedure": "We next performed a dose-titration experiment to establish IgG B11 in vivo potency and the minimal dose achieving maximal anti-tumor activity, using the scid/ARH-77 model system. […] Mouse serum antibody trough concentrations were determined by ELISA at the end of experimentation. Trough antibody concentrations were then plotted against percent of maximal in vivo anti-tumour activity, and against percent of maximal ICAM-1 receptor occupancy and tumour cell PCD at corresponding antibody concentrations in vitro (FIGS. 3C, 3D, 3E, 3F and 3G). Strikingly, a near perfect correlation between antibody concentration and in vitro tumour cell receptor occupancy, in vitro tumor cell PCD, and in vivo anti-tumour activity was observed, consistent with ICAM-1 dependent direct cell cytotoxicity underlying in vivo anti-tumour activity."}}}
{"molecule": "rituximab [reference compound]", "values": [{"measurement": "tumor growth", "setting": "ARH-77 cells [1]", "value": "significant anti-tumor activity albeit less efficaciously"}, {"measurement": "animal survival", "setting": "ARH-77 tumors", "value": "incapable of reducing tumor growth or promoting animal survival"}, {"measurement": "tumor growth", "setting": "ARH-77 tumors", "value": "incapable of reducing tumor growth"}, {"measurement": "induction of CDC", "setting": "[2]", "value": "effectively induced CDC"}]}
{"molecule": "CC(=O)O[C@H]1C(=O)[C@@]2(C)[C@H]([C@H](OC(=O)c3ccccc3)[C@]3(O)C[C@H](OC(=O)[C@H](O)[C@@H](NC(=O)c4ccccc4)c4ccccc4)C(C)=C1C3(C)C)[C@]1(OC(C)=O)CO[C@@H]1C[C@@H]2O", "note": "[paclitaxel, reference compound]", "values": [{"measurement": "PCD induction in normal endothelial cells", "setting": "[3]", "value": "induced significant endothelial cell"}]}
{"molecule": "Nc1cccc2c1CN(C1CCC(=O)NC1=O)C2=O", "note": "(stereo not drawn) [Revlimid, Lenalidomide]", "values": [{"measurement": "ICAM-1 expression on tumor cells collected from treated mice", "setting": "[4]", "value": "unchanged, high levels"}]}
{"molecule": "N[C@@H](Cc1ccc(N(CCCl)CCCl)cc1)C(=O)O", "note": "[AIKERAN, Melphalan]", "values": [{"measurement": "ICAM-1 expression on tumor cells collected from treated mice", "setting": "[4]", "value": "unchanged, high levels"}]}
{"molecule": "CC(C)C[C@H](NC(=O)[C@H](Cc1ccccc1)NC(=O)c1cnccn1)B(O)O", "note": "[bortezomib, reference compound]", "values": [{"measurement": "animal survival", "setting": "ARH-77 cells [5]", "value": "did not significantly enhance animal survival"}, {"measurement": "time to symptomatic disease onset", "setting": "ARH-77 cells [5]", "value": "insignificantly delayed disease onset"}, {"measurement": "ICAM-1 expression on tumor cells collected from treated mice", "setting": "[4]", "value": "unchanged, high levels"}]}
{"molecule": "IgG4: human IgG4 isotype switch variant of B11 (antibody, V domains shown) VH: EVQLLESGGGLVQPGGSLRLSCAASGFTFSNAWMSWVRQAPGKGLEWVAFIWYDGSNKYYADSVKGRFTISRDNSKNTLYLQMNSLRAEDTAVYYCARYSGWYFDYWGQGTLVTVSS VL: QSVLTQPPSASGTPGQRVTISCTGSSSNIGAGYDVHWYQQLPGTAPKLLIYDNNNRPSGVPDRFSGSKSGTSASLAISGLRSEDEADYYCQSYDSSLSAWLFGGGTKLTVLG", "values": [{"measurement": "binding to murine FcγRIV", "setting": "mouse FcγRIV", "value": "but not IgG4 or N297Q-mutant, showed strong binding"}, {"measurement": "ADCC of target tumor cells", "setting": "[6]", "value": "did not mediate ADCC"}, {"measurement": "binding to human FcγRIIIa", "setting": "human FcγRIIIa", "value": "did not bind to human FcγRIIIa"}, {"measurement": "In vivo IgG Levels (serum antibody titers)", "setting": "[7]", "value": "13 ± 3.1", "unit": "µg/mL"}]}
{"molecule": "N297Q-mutant: FcγR-binding deficient mutant IgG1 isotype switch variant of B11 (antibody, V domains shown) VH: EVQLLESGGGLVQPGGSLRLSCAASGFTFSNAWMSWVRQAPGKGLEWVAFIWYDGSNKYYADSVKGRFTISRDNSKNTLYLQMNSLRAEDTAVYYCARYSGWYFDYWGQGTLVTVSS VL: QSVLTQPPSASGTPGQRVTISCTGSSSNIGAGYDVHWYQQLPGTAPKLLIYDNNNRPSGVPDRFSGSKSGTSASLAISGLRSEDEADYYCQSYDSSLSAWLFGGGTKLTVLG", "values": [{"measurement": "binding to murine FcγRIV", "setting": "mouse FcγRIV", "value": "but not IgG4 or N297Q-mutant, showed strong binding"}, {"measurement": "ADCC of target tumor cells", "setting": "[6]", "value": "did not mediate ADCC"}, {"measurement": "binding to human FcγRIIIa", "setting": "human FcγRIIIa", "value": "did not bind to human FcγRIIIa"}, {"measurement": "In vivo IgG Levels (serum antibody titers)", "setting": "[7]", "value": "9.6 ± 3.", "unit": "μg/mL"}]}
